Assay results: patent US20260327264A1, “PEPTIDE INHIBITORS OF INTERLEUKIN-23 RECEPTOR” (Zealand Pharma A/S, priority 2023, published 2026)
Read-outs that look alike come from different tables or passages of the source. *1 amine or outer side, *2 acyl side, *3 side chain or, on linkers, in order; H or OH if unused. Where a SMILES comes first, the peptide text is derived from it. Bridges are numbered along the chain shown (N, C = ends). [ ]: non-standard residue; d: D form. The star is where a group is joined. 2Nal = N[C@@H](Cc1ccc2ccccc2c1)C(=O)O; AEF = NCCOc1ccc(C[C@H](N)C(=O)O)cc1; X1 = O=C(Cc1ccc(CN[*:1])cc1)[*:2]; 3Pal = N[C@@H](Cc1cccnc1)C(=O)O; αMeL = CC(C)C[C@](C)(N)C(=O)O; β3hL = CC(C)C[C@H](N)CC(=O)O; Orn = NCCC[C@H](N)C(=O)O; Pyrrolidide = C1CCN(*)C1; Dab = NCC[C@H](N)C(=O)O

How the values were obtained:
[1] = Peptide stability in simulated intestinal fluid (SIF); format: in vitro ADME; settings: pig, 10 μM
In short: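 Peptide at 10 μM final in USP-type SIF (10 g/L porcine pancreatin, phosphate buffer pH 6.8), shaken at 37 °C. Samples at 0, 1 and 4 h quenched in acetonitrile/0.1% formic acid and analysed by LC-HRMS. Percent remaining calculated from absolute peak areas relative to time zero.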

[2] = tested on: IL-23 mediated STAT3 signalling (DB cells); assay: Functional inhibition of IL-23 mediated STAT3 signalling (phospho-STAT3 Tyr705) in DB cells; format: cell-based, human; settings: for hIL-23 (pSTAT3) antagonist % inhibition: Table 3-2, maximal inhibitory response, EC80 of hIL-23
In short: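 Phospho-STAT3 in lysed DB cells quantified by MSD kit after 90 min exposure to EC80 human IL-23, following 15 min compound pretreatment (37° C, 5% CO2). IC50 and maximal inhibition derived from curves normalized between IL-23-only and buffer-only controls.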

[3] = Peptide stability in simulated gastric fluid (SGF); format: in vitro ADME; settings: pig, pH 1.2, pepsin, 37° C.
In short: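 Peptide (10 μM final) incubated at 37 °C in USP SGF, pH 1.2 with porcine pepsin 3.2 g/L; aliquots at 0, 1 and 4 h quenched in acidified acetonitrile.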

[4] = target: T1, human IL-23R (Homo sapiens, UniProt Q5VWK5); assay: Binding assay: displacement of fluorophore (TAMRA)-labelled reference compound from human IL-23R (BRET, Nluc-IL23R fusion protein membranes); settings: for Emax: read-out: % displacement (hIL-23R binding)
T1 construct: Nanoluc luciferase (Nluc); secretion signal encoded by the plasmid (not specified); expressed in transfected cells; crude membranes used in the assay
T1 sequence (Q5VWK5 22-629): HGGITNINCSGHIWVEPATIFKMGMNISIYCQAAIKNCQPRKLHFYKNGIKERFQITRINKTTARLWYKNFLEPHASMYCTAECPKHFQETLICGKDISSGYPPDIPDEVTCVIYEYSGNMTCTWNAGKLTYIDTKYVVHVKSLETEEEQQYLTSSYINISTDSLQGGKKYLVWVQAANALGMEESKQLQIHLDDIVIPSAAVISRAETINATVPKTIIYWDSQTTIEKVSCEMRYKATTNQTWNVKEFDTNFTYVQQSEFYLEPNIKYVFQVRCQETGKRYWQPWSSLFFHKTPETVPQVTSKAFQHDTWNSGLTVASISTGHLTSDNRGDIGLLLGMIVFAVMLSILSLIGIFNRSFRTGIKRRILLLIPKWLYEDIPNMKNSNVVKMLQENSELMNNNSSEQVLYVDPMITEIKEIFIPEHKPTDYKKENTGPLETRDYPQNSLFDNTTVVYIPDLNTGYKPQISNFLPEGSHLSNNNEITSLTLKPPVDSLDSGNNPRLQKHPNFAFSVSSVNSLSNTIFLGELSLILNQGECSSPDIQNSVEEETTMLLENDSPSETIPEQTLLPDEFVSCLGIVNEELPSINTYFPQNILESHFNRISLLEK
Source text: The assay principle relies on Bioluminescence Resonance Energy Transfer (BRET) between a fluorophore-labelled reference compound binding to the IL-23R part of a fusion protein consisting of the IL-23R fused to a Nanoluc luciferase enzyme (Nanoluc). The Nanoluc is placed in the N-terminus in close proximity to the binding domain of the ligand. Upon close proximity between the fluorophore of the fluorophore-labelled compound and the Nanoluc of the fusion protein, bioluminescence energy generated from conversion of a Nanoluc substrate, is transferred to the fluorophore resulting in an increase in BRET. In presence of an unlabelled compound, the unlabelled compound displaces the fluorophore-labelled peptide from its binding site resulting in a decrease in BRET. The concentration for which half of the fluorophore-labelled peptide is displaced by the unlabelled compound depends on the affinity of the compound for the IL-23R, and is termed the IC50 concentration.
The plasmid also contained a gene to confer resistance for the antibiotic hygromycin. A cell line stably expressing the Nluc-IL23R fusion protein was generated by transfection of HEK293 cells with the expression plasmid and selected with hygromycin for 3 weeks in Growth medium consisting of DMEM w/Glutamax-I containing, 10% V/V FBS, 1% V/V P/S, 1 mM Sodium Pyruvate, and 1× NEAA, and 0.3 mg/mL hygromycin. The remaining cells were propagated and considered a stable expressing Nluc-IL23R fusion protein pool clone.
Cells expressing the Nluc-IL23R fusion protein were expanded in Growth medium and membranes prepared by homogenization of a cell pellet from 18 T175 flasks (4° C. in subsequent steps). The cell pellet was lysed Tris 10 mM, 7.5, 1 mM EDTA and protease inhibitors (Complete, Roche) and homogenized using a 15 mL glass-dounce by 50 strokes. The homogenate was spun at spin @1500 rpm for 10 min, the supernatant transferred to SV-34 tubes and spun at 40000 g for 20 min at 4° C. to pellet the crude membranes. The supernatant was then removed, the pellet resuspended in 5 mL buffer containing 50 mM HEPES pH 7.4, 5 mM EGTA, and 5 mM MgCl2, and homogenized. Aliquots of the resuspended and homogenized membranes containing the Nluc-IL23R fusion protein were stored at −80° C. until use.
The plate was sealed with light impermeable plate seals, and incubated on an orbital shaker 400 rpm for 2 hours at room temperature. To determine the BRET ratio, the plate seal was removed and 25 μL of the Nanoluc substrate (Promega N1572) diluted 1:500 was added to each well and incubated for 1-2 minutes on an orbital shaker at 400 rpm. […] The BRET ratio was calculated as the fluorescence from the TAMRA/nanoluc bioluminescence.
Compound potency (IC50) and maximal displacement (% displacement) were estimated by computer-aided curve fitting using a 4-parameter logistic (4PL) non-linear model. The IC50 and maximal for each compound was determined by computer-aided curve fitting using a 4-parameter logistic (4PL) non-linear model.

[5] = simulated intestinal fluid, SIF, pH 6.8, pancreatin, 37° C.
[6] = EC80 of hIL-23, read-out: IC50 (pSTAT3)
[7] = Table 3-2, EC80 of hIL-23, read-out: hIL-23 (pSTAT3) antagonist IC50
[8] = simulated intestinal fluid, SIF, pH 6.8, pancreatin, 37° C., read-out: SIF (% remaining 4 h)

| Structure (SMILES) | remaining at 1 h, 10 µM [1, 5] [%] | remaining at 4 h, 10 µM ([1]; 37 °C, simulated intestinal fluid pH 6.8 with porcine pancreatin, read-out: SIF (% after 4 h), intact peptide remaining) [%] | IC50 [2, 6] [pM] | IC50 [2, 7] [pM] | hIL-23 (pSTAT3) antagonist % inhibition [2] [%] | remaining at 1 h, 10 µM [3] [%] | remaining at 4 h, 10 µM [3] [%] | IC50 [4] [pM] | Emax [4] [%] | remaining at 4 h, 10 µM [1, 8] [%] |
| --- | --- | --- | --- | --- | --- | --- | --- | --- | --- | --- |
| CC(C)C[C@@H](CC(N)=O)NC(=O)[C@H](Cc1cccnc1)NC(=O)[C@H](CCN)NC(=O)[C@@H]1CCC(=O)NCc2ccc(cc2)CC(=O)N[C@@H](CO)C(=O)N[C@H]2CCC(=O)NCC[C@H](NC(=O)[C@H](CCC(N)=O)NC(=O)[C@H](Cc3c[nH]c4ccccc34)NC2=O)C(=O)N[C@@H](Cc2ccc(OCCN)cc2)C(=O)N[C@@H](Cc2ccc3ccccc3c2)C(=O)N[C@@](C)(CC(C)C)C(=O)N1 [Compound 11, [4-Aminomethyl-phenylacetyl](1c)*SE(2c)WQ[Dab](2c)[Y(2-aminoethoxy)][2-Nal][2-Me-Leu]E(1c)[Dab][3-(3-Pyridyl)-Ala][beta-hLeu]-[NH2]] ([X1]SEWQ[Dab][AEF][2Nal][αMeL]E[Dab][3Pal][β3hL]-NH2; lactam 3-6, N-10) | 101 | 102 | 680 | 680 | 98 | 98 | 97 | 24 | 103 |  |
| CC(C)C[C@]1(C)NC(=O)[C@H](Cc2ccc3ccccc3c2)NC(=O)[C@H](Cc2ccc(OCCN)cc2)NC(=O)[C@@H]2CCNC(=O)CC[C@H](NC(=O)[C@H](CO)NC(=O)Cc3ccc(cc3)CNC(=O)CC[C@@H](C(=O)N[C@@H](CCN)C(=O)N[C@H](Cc3c[nH]cn3)C(N)=O)NC1=O)C(=O)N[C@@H](Cc1c[nH]c3ccccc13)C(=O)N[C@@H](CCC(N)=O)C(=O)N2 [Compound 13, [4-Aminomethyl-phenylacetyl](1c)*SE(2c)WQ[Dab](2c)[Y(2-aminoethoxy)][2-Nal][2-Me-Leu]E(1c)[Dab][{d}H]-[NH2]] | 84 |  | 6800 | 6800 | 99 | 94 |  |  | 100 |  |
| CC(C)C[C@]1(C)NC(=O)[C@H](Cc2ccc3ccccc3c2)NC(=O)[C@H](Cc2ccc(OCCN)cc2)NC(=O)[C@@H]2CCNC(=O)CC[C@H](NC(=O)[C@H](CO)NC(=O)Cc3ccc(cc3)CNC(=O)CC[C@@H](C(=O)N[C@@H](CCN)C(=O)N[C@@H](Cc3cn(C)cn3)C(N)=O)NC1=O)C(=O)N[C@@H](Cc1c[nH]c3ccccc13)C(=O)N[C@@H](CCC(N)=O)C(=O)N2 [Compound 14, [4-Aminomethyl-phenylacetyl](1c)*SE(2c)WQ[Dab](2c)[Y(2-aminoethoxy)][2-Nal][2-Me-Leu]E(1c)[Dab][H(Me)]-[NH2]] | 98 |  |  | 7200 | 99 | 93 |  | 110 | 102 |  |
| CNC(=O)[C@H](Cc1cccnc1)NC(=O)[C@H](CCN)NC(=O)[C@@H]1CCC(=O)NCc2ccc(cc2)CC(=O)N[C@@H](CO)C(=O)N[C@H]2CCC(=O)NCC[C@H](NC(=O)[C@H](CCCCNC(C)=O)NC(=O)[C@H](Cc3c[nH]c4ccccc34)NC2=O)C(=O)N[C@@H](Cc2ccc(OCCN)cc2)C(=O)N[C@@H](Cc2ccc3ccccc3c2)C(=O)N[C@@](C)(CC(C)C)C(=O)N1 [Compound 24, [4-Aminomethyl-phenylacetyl](1c)*SE(2c)W[K(Ac)][Dab](2c)[Y(2-aminoethoxy)][2-Nal][2-Me-Leu]E(1c)[Dab][3-(3-Pyridyl)-Ala]-[NHMe]] ([X1]SEWK(Ac)[Dab][AEF][2Nal][αMeL]E[Dab][3Pal]-NHMe; lactam 3-6, N-10) | 91 |  |  | 58 | 98 | 93 | 90 |  | 97 | 89 |
| CNC(=O)[C@H](Cc1cccnc1)NC(=O)[C@H](CCN)NC(=O)[C@@H]1CCC(=O)NCc2ccc(cc2)CC(=O)N[C@@H](CO)C(=O)N[C@H]2CCC(=O)NCC[C@H](NC(=O)[C@H](CCNC(C)=O)NC(=O)[C@H](Cc3c[nH]c4ccccc34)NC2=O)C(=O)N[C@@H](Cc2ccc(OCCN)cc2)C(=O)N[C@@H](Cc2ccc3ccccc3c2)C(=O)N[C@@](C)(CC(C)C)C(=O)N1 [Compound 25, [4-Aminomethyl-phenylacetyl](1c)*SE(2c)W[Dab(Ac)][Dab](2c)[Y(2-aminoethoxy)][2-Nal][2-Me-Leu]E(1c)[Dab][3-(3-Pyridyl)-Ala]-[NHMe]] ([X1]SEW[Dab](Ac)[Dab][AEF][2Nal][αMeL]E[Dab][3Pal]-NHMe; lactam 3-6, N-10) | 88 |  |  | 76 | 100 | 93 |  | 11 |  |  |
| CNC(=O)[C@H](Cc1cccnc1)NC(=O)[C@H](CCN)NC(=O)[C@@H]1CCC(=O)NCc2ccc(cc2)CC(=O)N[C@@H](CO)C(=O)N[C@H]2CCC(=O)NCC[C@H](NC(=O)[C@H](CCC(=O)N3CCCC3)NC(=O)[C@H](Cc3c[nH]c4ccccc34)NC2=O)C(=O)N[C@@H](Cc2ccc(OCCN)cc2)C(=O)N[C@@H](Cc2ccc3ccccc3c2)C(=O)N[C@@](C)(CC(C)C)C(=O)N1 [Compound 27, [4-Aminomethyl-phenylacetyl](1c)*SE(2c)W[Q(pyrrolidin)][Dab](2c)[Y(2-aminoethoxy)][2-Nal][2-Me-Leu]E(1c)[Dab][3-(3-Pyridyl)-Ala]-[NHMe]] ([X1]SEWE(Pyrrolidide)[Dab][AEF][2Nal][αMeL]E[Dab][3Pal]-NHMe; lactam 3-6, N-10) | 90 |  |  | 230 | 100 | 101 | 96 | 17 | 97 | 85 |
| CNC(=O)[C@H](Cc1cccnc1)NC(=O)[C@H](CCN)NC(=O)[C@@H]1CCC(=O)NCc2ccc(cc2)CC(=O)N[C@@H](CO)C(=O)N[C@H]2CCC(=O)NCC[C@H](NC(=O)[C@H](CCCN)NC(=O)[C@H](Cc3c[nH]c4ccccc34)NC2=O)C(=O)N[C@@H](Cc2ccc(OCCN)cc2)C(=O)N[C@@H](Cc2ccc3ccccc3c2)C(=O)N[C@@](C)(CC(C)C)C(=O)N1 [Compound 28, [4-Aminomethyl-phenylacetyl](1c)*SE(2c)W[Orn][Dab](2c)[Y(2-aminoethoxy)][2-Nal][2-Me-Leu]E(1c)[Dab][3-(3-Pyridyl)-Ala]-[NHMe]] ([X1]SEW[Orn][Dab][AEF][2Nal][αMeL]E[Dab][3Pal]-NHMe; lactam 3-6, N-10) | 106 |  |  | 52 | 101 | 100 |  | 11 | 97 |  |
| CNC(=O)[C@H](Cc1cccnc1)NC(=O)[C@H](CCN)NC(=O)[C@@H]1CCC(=O)NCc2ccc(cc2)CC(=O)N[C@@H](CO)C(=O)N[C@H]2CCC(=O)NCC[C@H](NC(=O)[C@H](CCC(=O)N(C)C)NC(=O)[C@H](Cc3c[nH]c4ccccc34)NC2=O)C(=O)N[C@@H](Cc2ccc(OCCN)cc2)C(=O)N[C@@H](Cc2ccc3ccccc3c2)C(=O)N[C@@](C)(CC(C)C)C(=O)N1 [Compound 30, [4-Aminomethyl-phenylacetyl](1c)*SE(2c)W[Q(2Me)][Dab](2c)[Y(2-aminoethoxy)][2-Nal][2-Me-Leu]E(1c)[Dab][3-(3-Pyridyl)-Ala]-[NHMe]] ([X1]SEWE(NMe2)[Dab][AEF][2Nal][αMeL]E[Dab][3Pal]-NHMe; lactam 3-6, N-10) | 94 |  |  | 77 | 103 | 92 | 89 |  | 104 |  |
